Test results published in ChEMBL document CHEMBL1150339, “Synthesis and anti-breast cancer activities of substituted quinolines” (Bioorg Med Chem Lett, 2008).
pIC50: −log10 of the molar value. Active and inactive are the calls of the source. The rule behind the calls is not given here.

Experiments:
T47D [1] = test: Cell viability of human T47D cells by trypan blue exclusion assay; format: functional, cell-based
T47D [2] = test: Cell viability of human T47D cells at 10 uM by trypan blue exclusion assay; format: functional, cell-based

SMILES	pIC50 (T47D [1])	Activity (T47D [2])
COc1cc(NCCC#N)c2nccc(C)c2c1Oc1cccc(C(F)(F)F)c1	6.42	
COc1cc(NCCCN)c2nccc(C)c2c1Oc1cccc(C(F)(F)F)c1	6.92	
COc1cc(NCc2cccs2)c2nccc(C)c2c1Oc1cccc(C(F)(F)F)c1	5.43	
COc1cc(N)c2nccc(C)c2c1Oc1cccc(C(F)(F)F)c1		inactive
COc1cc(NCc2ccco2)c2nccc(C)c2c1Oc1cccc(C(F)(F)F)c1	7.81	
COc1cc(NCCC(=N)N)c2nccc(C)c2c1Oc1cccc(C(F)(F)F)c1	6.28	
CCOC(=N)CCNc1cc(OC)c(Oc2cccc(C(F)(F)F)c2)c2c(C)ccnc12	5.70	
COc1cc(NCc2cnc[nH]2)c2nccc(C)c2c1Oc1cccc(C(F)(F)F)c1	5.89	
